Measurements taken from patent publication US8716236B2, “Inhibitors of IAP” (Genentech, Inc., priority 2012, dated 2014).

Test system: human breast MDA-MB-231•X1 cells
Experiment: Tumor xenograft study
Assay type: in vivo, mouse
Conditions: MDA-MB-231•X1 xenograft in female nude mice, iv Qwk
Experimental: All procedures involving animals were performed in accordance with the guidelines of the Genentech Institutional Animal Care and Use Committee. Cancer cells such as Human breast MDA-MB-231, colorectal, Colo205, or NSCLC, Calu6 cancer cells were obtained from American Type Culture Collection (Manassas, Va.). Cells were resuspended in HBSS (Colo205) or the cell suspension was mixed 1:1 with Matrigel (BD Biosciences; MDA-MB-231, Calu6). The cells (1.5×10^7 for MDA-MB-231; 5.0×10^7 for Colo205, Calu6) were then implanted subcutaneously into the right flank of female nude mice (Charles River Laboratories, Hollister, Calif.) aged 6-8 weeks. Tumor volumes were calculated using the mean diameter measured with vernier calipers using the formula v=0.5×a×b^2, were a and b are the largest and smallest perpendicular tumor diameters, respectively. Ten mice with the appropriate mean tumor volume were assigned randomly to each of six groups. The mean tumor volume±the standard error of the mean (SEM) for all six groups was 168±3 mm^3 at the initiation of treatment (Day 0). The mice were observed on each day of the study, and tumor volumes and body weights were measured twice each week.

| Compound | MED |
| --- | --- |
| CN[C@@H](C)C(=O)N[C@H](C(=O)N1CCCC1C(=O)Nc1snnc1-c1ccccc1)C1CCCCC1 (some centres unmarked) [III] | 18.6 mg/kg |
| CN[C@@H](C)C(=O)N[C@H](C(=O)N1CCC[C@H]1C(=O)Nc1sc(-c2ncco2)nc1-c1ccccc1)C1CCCCC1 [Ia, (S)-1-[(S)-2-cyclohexyl-2-((S)-2-methylamino-propionylamino)-acetyl]-pyrrolidine-2-carboxylic acid (2-oxazol-2-yl-4-phenyl-thiazol-5-yl)-amide] | 3.4 mg/kg |
